Results on 27 sequences are retold here after the OligoGym collection.

One data set concerns the target APOL1. The conditions noted are these: ASO, A431, 2 µM.
A further data set concerns the target SOD1. The conditions noted are these: ASO.

After the bases stand the sugars from the 5' end (letter, count) and the backbone: PS all phosphorothioate, else s phosphorothioate and o phosphodiester by linkage. Methylation of C is not given here. e = 2'-O-(2-methoxyethyl) (MOE); k = constrained ethyl (cEt); d = 2'-deoxy (DNA)

As for “ATCAGATGGGTACTTC (sugars kkddddkekekkdddd, PS)”, in the data set with APOL1, the target mRNA inhibition came out at 45%.
Same read-out and setting: as for “ATCAGATGGGTACTTC (sugars kkkddddkdkdkdddd, PS)”, the figure is 79%.
Take “TGTGATTTAAGTCTGGC (sugars e2 k2 d9 k2 e2, PS)”: the target mRNA inhibition with SOD1 (HepG2, 5 µM) turned out to be 58%.
“TGTTTAATGTTTATCA (sugars kekeddddddddekek, linkages s1 o3 s8 o1 s2)”: the target mRNA inhibition was 6% with SOD1 (A431, 0.12 µM); 14% with SOD1 (A431, 0.6 µM); 15% in the data set with SOD1 (A431, 3 µM); 32% in the data set with SOD1 (A431, 15 µM); 42% with SOD1 (HepG2, 0.222 µM); 54% with SOD1 (HepG2, 0.667 µM). Moreover, the target mRNA inhibition in the data set with SOD1 (HepG2, 2 µM) was 69%; with SOD1 (HepG2, 6 µM), 86%.
The sequence “TGTTTATCAGGATACATTTC (sugars e5 d10 e5, PS)” returned a target mRNA inhibition with SOD1 (HepG2, 5 µM) of 52%.
For “TTAAGTCTGGCAAAATA (sugars e3 k2 d7 k2 e3, PS)”, the target mRNA inhibition in the data set with SOD1 (HepG2, 3 µM) worked out at 2%.
As for “TTAATACCCATCTGTGA (sugars e2 k2 d8 k2 e3, PS)”, the target mRNA inhibition with SOD1 (HepG2, 5 µM) stood at 28%.
With “TTAATGTTTATCAGGATA (sugars e5 d8 e5, linkages s1 o3 s9 o2 s2)”, the target mRNA inhibition in the data set with SOD1 (A431, 0.12 µM) worked out at 18%; with SOD1 (A431, 0.6 µM), 7%; in the data set with SOD1 (A431, 3 µM), 11%; with SOD1 (A431, 15 µM), 9%; in the data set with SOD1 (HepG2, 0.222 µM) it was 0%; with SOD1 (HepG2, 0.667 µM) it was 17%. Besides, the target mRNA inhibition with SOD1 (HepG2, 2 µM) was determined as 47%; in the data set with SOD1 (HepG2, 6 µM), 72%.
In the data set with SOD1 (HepG2, 5 µM), “TTAATGTTTATCAGGATACA (sugars e5 d10 e5, PS)” came in with a target mRNA inhibition of 34%.
As for “TTACACCACAAGCCAAACGA (sugars e5 d10 e5, PS)”, the target mRNA inhibition with SOD1 (HepG2, 5 µM) worked out at 24%.
Same read-out and setting: in the case of “TTAGTTTGAATTTGGAT (sugars e2 k2 d8 k2 e3, PS)” it was 31%; in that of “TTAGTTTGAATTTGGAT (sugars e2 k2 d9 k2 e2, PS)”, 16%.
Same read-out and setting: in the case of “TTATTCACAGGCTTGAA (sugars e2 k2 d8 k2 e3, PS)” it was 26%.
In the data set with SOD1 (HepG2, 4 µM), “TTATTGGGCGATCCCAA (sugars e2 k2 d8 k2 e3, PS)” displayed a target mRNA inhibition of 41%.
Take “TTCATTTCCACCTTTGC (sugars e3 k2 d7 k2 e3, PS)”: the target mRNA inhibition with SOD1 (HepG2, 3 µM) is 33%.
Regarding “TTCCCCACACCTTCAC (sugars kekeddddddddekek, linkages s1 o3 s8 o1 s2)”, the target mRNA inhibition with SOD1 (A431, 0.12 µM) was 4%; in the data set with SOD1 (A431, 0.6 µM) it was 12%; with SOD1 (A431, 3 µM), 5%; with SOD1 (A431, 15 µM), 12%; with SOD1 (HepG2, 0.222 µM), 6%; in the data set with SOD1 (HepG2, 0.667 µM), 16%. Further, the target mRNA inhibition was 20% with SOD1 (HepG2, 2 µM) and 59% with SOD1 (HepG2, 6 µM).
Consider “TTCTACAGCTAGCAGGA (sugars e2 k2 d8 k2 e3, PS)”, for which the target mRNA inhibition with SOD1 (HepG2, 0.1875 µM) amounted to 18%; with SOD1 (HepG2, 0.75 µM) it was 48%; in the data set with SOD1 (HepG2, 3 µM), 66%; in the data set with SOD1 (HepG2, 4 µM), 74%; with SOD1 (HepG2, 12 µM) it was 86%.
“TTCTACAGCTAGCAGGA (sugars e3 k2 d7 k2 e3, PS)” showed a target mRNA inhibition with SOD1 (HepG2, 3 µM) of 31%.
Consider “TTCTCACTACAGGTACT (sugars e2 k2 d8 k2 e3, PS)”, for which the target mRNA inhibition with SOD1 (HepG2, 5 µM) amounted to 26%.
In the data set with SOD1 (HepG2, 5 µM), “TTCTTTTAATAGCCTCATAA (sugars e5 d10 e5, PS)” yielded a target mRNA inhibition of 5%.
As to “TTGGATTCTTTTAATAG (sugars e2 k2 d9 k2 e2, PS)”, the target mRNA inhibition with SOD1 (HepG2, 5 µM) was 8%.
The sequence “TTGGGCGATCCCAATTA (sugars e2 k2 d8 k2 e3, PS)” showed a target mRNA inhibition with SOD1 (HepG2, 4 µM) of 14%.
Turning to “TTTAATGTTTATCAGGAT (sugars e5 d8 e5, linkages s1 o3 s9 o2 s2)”, the target mRNA inhibition in the data set with SOD1 (A431, 0.12 µM) was determined as 13%; with SOD1 (A431, 0.6 µM), 19%; with SOD1 (A431, 3 µM), 22%; in the data set with SOD1 (A431, 15 µM), 7%; with SOD1 (HepG2, 0.222 µM), 10%; in the data set with SOD1 (HepG2, 0.667 µM) it was 24%. Further, the target mRNA inhibition with SOD1 (HepG2, 2 µM) came out at 28%; with SOD1 (HepG2, 6 µM) it was 53%.
For the sequence “TTTATTCACAGGCTTGA (sugars e2 k2 d9 k2 e2, PS)”, the target mRNA inhibition with SOD1 (HepG2, 5 µM) is 55%.
For the sequence “TTTATTCACAGGCTTGA (sugars e3 k2 d7 k2 e3, PS)”, the target mRNA inhibition with SOD1 (HepG2, 3 µM) came to 29%.
For “TTTTCATGGACCACCAGTGT (sugars e5 d10 e5, PS)”, in the data set with SOD1 (HepG2, 5 µM), the target mRNA inhibition is 17%.
In turn, “TTTTTATTCACAGGCTT (sugars e3 k2 d7 k2 e3, PS)” displayed a target mRNA inhibition with SOD1 (HepG2, 3 µM) of 31%.
